Results as given in US5800809A, “Non-crosslinked acrylic polymers and non-crosslinked anion exchange resins” (priority 1992, dated 1998).

Experiments:
[1] = rat, in vivo
[2] = rabbit, in vivo
[3] = design: species or system CD-1 mouse; settings: mouse, in vivo
Experimental: (3) Micronucleus test on mice.
test on mice HBS-107 was given orally at a dosage of
was prepared after 24, 48 and 72 hours

polyacryloyloxyethyl-N,N-dimethylbenzyl ammonium salt [Example 1]
urine volume, Na^+ and Cl^- [1]: Significant reduction
irritation (in words) [2]: not strong
induction of micronucleus formation [3]: No induction
